We go through 13 compounds from patent publication US9096605B2, “Pyrazolopyrimidine derivatives as PI3 kinase inhibitors” (GlaxoSmithKline LLC, priority 2011, dated 2015).

Where only a bound is given, the exact number is not on record here.

For one assay, the target named is T1, PI3K-beta (Homo sapiens, UniProt P42338).
T1 construct: made in house
Briefly: HTRF in vitro profiling assay for PI3K inhibition (beta isoform). The format is biochemical. To be noted: PI3K-beta enzyme pIC50 range, 200 pM enzyme, 100 uM ATP, 10 uM PIP2, 150 mM NaCl, corrected pIC50, read-out: PI3K-b Enz Activity. The text has this: HTRF In Vitro Profiling Assays for PI3K Inhibition
The PI3-Kinase profiling assays were developed to measure the compound-dependent inhibition of the alpha, beta, delta, and gamma isoforms of PI3K in an in vitro catalytic assay. This assay was developed and optimized from a kit produced by Upstate (Millipore catalog #33-017). Briefly, this procedure utilizes a pre-formed HTRF (Homogeneous Time-Resolved Fluorescence energy transfer) complex between four binding partners: 1) biotinylated PIP3, 2) GST tagged pleckstrin homology (PH) domain, 3) Europium labeled anti-GST monoclonal antibody, and 4) Streptavidin-Allophycocyanin (APC). The native PIP3 produced by PI 3-Kinase activity displaces biotin-PIP3 from the PH domain, resulting in the dissociation of the HTRF complex and a decrease in the fluorescence signal. The format of this assay is the same for all 4 isoforms of PI3K; the differences lie in the concentration of enzyme used to achieve the most robust signal. The alpha and delta assays are run at 400 pM enzyme; the beta assay is at 200 pM enzyme and the gamma assay is run at 1 nM enzyme. In addition, the alpha, beta and delta assays are run with 150 mM NaCl while the gamma assay is run in the absence of NaCl. The ATP concentration is 100 uM in the alpha, beta, and delta assays and 15 uM ATP in the gamma assay. All reactions are run at 10 uM PIP2
Compounds are serially diluted (3-fold in 100% DMSO) across a 384-well polypropylene mother plate from column 1 to column 12 and column 13 to column 24, to yield 11 concentrations for each test compound. Columns 6 and 18 contain only DMSO. Once titrations are made, […] is transferred to a 384-well low-volume assay plate (Greiner 784076). This assay plate contains three pharmacological controls (known PI3K inhibitors) and 3 assay controls: (1) Enzyme without inhibitor; (2) Buffer minus enzyme, and (3) Buffer minus enzyme plus native PIP3. DMSO is stamped into all wells of columns 6 and 18. PIP3 is added at 40 μM in 1× Reaction buffer (1 μL of 200 μM PIP3) to alternating rows of column 18 (wells 18 B, D, F, H, J, L, N, P). The no-enzyme control reactions are run in wells 18 A, C, E, G, I, K, M, O (0.1 μL of 100% DMSO).
The PI3-Kinase profiling assay was optimized using the HTRF kit provided by Upstate (Millipore). The assay kit contains seven reagents: 1) 4× Reaction Buffer; 2) native PIP2 (substrate); 3) Stop A (EDTA); 4) Stop B (Biotin-PIP3); 5) Detection Mix A (Streptavidin-APC); 6) Detection Mix B (Eu-labeled Anti-GST plus GST-tagged PH-domain); 7) Detection Mix C (KF). In addition, the following items were obtained or purchased: PI3Kinase (prepared by GSK BR&AD), dithiothreitol (Sigma, D-5545), Adenosine-5′-triphosphate (ATP, Teknova cat. # A0220), native PIP3 (1,2-dioctanoyl-sn-glycero-3-[phosphoinositil-3,4,5-triphosphate]tetraammonium salt (Avanti polar lipids, 850186P), DMSO (Sigma, 472301).
PI3Kinase Reaction Buffer is prepared by diluting the stock 1:4 with de-ionized water. Freshly prepared DTT is added at a final concentration of 5 mM on the day of use. Enzyme addition and compound pre-incubation are initiated by the addition of 2.5 μL of PI3K (at twice its final concentration) in 1× reaction buffer to all wells using a Multidrop Combi. Plates are incubated at room temperature for 15 minutes. Reactions are initiated by addition of 2.5 μL of 2× substrate solution (PIP2 and ATP in 1× reaction buffer) using a Multidrop Combi. Plates are incubated at room temperature for one hour. Reactions are quenched by the addition of 2.5 μL of stop solution (Stop A and Stop B pre-mixed at a ratio of 5:1, respectively) to all wells using the Multidrop Combi. […]
(Time-resolved FRET reads energy transfer from a long-lived donor to a nearby acceptor.)

In assay [1] the test system is pAKT(Ser473) in MDA-MB-468 cells. Description: pAKT(Ser473) assay in MDA-MB-468 cells. The format is cell-based. To be noted: Homo sapiens, 0.5 h, compound treatment 30 minutes, MSD ELISA phospho AKT(Ser473), given as ranges, read-out: Cell Activity—pAKT IC50 in MDA-MB-468. The protocol:
pAKT(Ser473) Assay in MDA-MB-468 Cells
MDA-MB-468 cells were plated in 384-well flat clear bottom tissue culture plates (Corning #3701) at a density of 5000 cells per 0.057 cm2 in 48 ul of RPMI 1640 media supplemented with 10% fetal bovine serum (FBS). Cells were seeded with a Wellmate liquid handler (Matrix). Columns 1 through 23 were plated with cells and column 24 contained media alone. Cells were incubated at 37° C. with 5% CO2 for approximately 16-20 hours. Duplicate compound plates were prepared in 384-well polypropylene V-Bottom plates (Greiner #781280).
Compound titrations were made across the columns (A1-A20). 20 ul of compound was added to the first column and diluted into a 20 point curve with dimethylsulfoxide (DMSO, Thermo #TS2064) using a 2-fold dilution factor with a liquid handling robot (Hamilton). Columns 22 through 24 contained DMSO alone. Titrations were diluted 682-fold for compound treatment with 4 ul of compound added to 105 ul of RPMI media. Two ul of the diluted compound was added to the cell plates containing 48 ul of media using a multimek robot (Beckman Coulter). Final DMSO concentrations were 0.15%. Cells were treated with compound for 30 minutes at 37° C. with 5% CO2.
Following incubation, media was aspirated from dosed cell plates using an ELx405 plate washer (Bio-Tek) and 25 ul of 4° C. Meso Scale Discovery (MSD) lysis buffer with the addition of protease and phosphatase inhibitors (supplied in MSD kit #N31CB-1) was added to each well using a multidrop combi (Thermo). Precoated 4-spot per well MSD ELISA plates coated with total and phospho AKT(Ser473) antibody and BSA (supplied in kit) were blocked for 1 hour at room temperature with 35 ul per well of 1× MSD wash buffer+3% BSA (supplied in kit).
Blocked plates were washed 4 times with 100 ul per well of 1× Tris wash buffer (supplied in MSD kit) using an Elx405 plate washer (Bio-Tek). To each well, 20 ul of cell lysate was added using a multimek robot (Beckman Coulter) and the plate incubated at 4° C. overnight (˜12-24 hours). Following incubation, the ELISA plates were washed 4 times (100 ul/well) with 1× Tris wash buffer. Twenty microliters per well of 1× detection antibody (supplied in MSD kit) was added using a multidrop combi (Thermo), followed by a 2 hour incubation at room temperature. Detection antibody was aspirated and the plates washed 4 times (100 ul/well) with 1× Tris wash buffer. Read Buffer (supplied in MSD kit) was added at 1× (35 ul/well) at room temperature using a multidrop (Thermo). Relative luminescence units (RLU) were determined using a SECTOR™ Imager 6000 with MSD Workbench Software.
Concentration Response Curves for pAKT(Ser473):
For analysis of the pAKT(Ser473) concentration response curves, the data was normalized using Phospho AKT values divided by the sum of corresponding Total AKT and Phospho AKT values. The normalized values are plotted as the percent of the DMSO-treated control values on the corresponding plate. To determine IC50 values, the data is fit to a 4 parameter nonlinear sigmoidal dose response (variable slope) using GraphPad Prism version 4 for Windows, (GraphPad Software, San Diego Calif. USA). Criteria for curve fitting and IC50 determination include that the IC50 values from duplicate runs must be within 2 to 3-fold of each other, the Y min must be less than or equal to 30% of the DMSO-treated control and the Y max must range between 80-120%. Any data point equal to or greater than 40% of the curve was not utilized.

T1 sequence (P42338 whole entry): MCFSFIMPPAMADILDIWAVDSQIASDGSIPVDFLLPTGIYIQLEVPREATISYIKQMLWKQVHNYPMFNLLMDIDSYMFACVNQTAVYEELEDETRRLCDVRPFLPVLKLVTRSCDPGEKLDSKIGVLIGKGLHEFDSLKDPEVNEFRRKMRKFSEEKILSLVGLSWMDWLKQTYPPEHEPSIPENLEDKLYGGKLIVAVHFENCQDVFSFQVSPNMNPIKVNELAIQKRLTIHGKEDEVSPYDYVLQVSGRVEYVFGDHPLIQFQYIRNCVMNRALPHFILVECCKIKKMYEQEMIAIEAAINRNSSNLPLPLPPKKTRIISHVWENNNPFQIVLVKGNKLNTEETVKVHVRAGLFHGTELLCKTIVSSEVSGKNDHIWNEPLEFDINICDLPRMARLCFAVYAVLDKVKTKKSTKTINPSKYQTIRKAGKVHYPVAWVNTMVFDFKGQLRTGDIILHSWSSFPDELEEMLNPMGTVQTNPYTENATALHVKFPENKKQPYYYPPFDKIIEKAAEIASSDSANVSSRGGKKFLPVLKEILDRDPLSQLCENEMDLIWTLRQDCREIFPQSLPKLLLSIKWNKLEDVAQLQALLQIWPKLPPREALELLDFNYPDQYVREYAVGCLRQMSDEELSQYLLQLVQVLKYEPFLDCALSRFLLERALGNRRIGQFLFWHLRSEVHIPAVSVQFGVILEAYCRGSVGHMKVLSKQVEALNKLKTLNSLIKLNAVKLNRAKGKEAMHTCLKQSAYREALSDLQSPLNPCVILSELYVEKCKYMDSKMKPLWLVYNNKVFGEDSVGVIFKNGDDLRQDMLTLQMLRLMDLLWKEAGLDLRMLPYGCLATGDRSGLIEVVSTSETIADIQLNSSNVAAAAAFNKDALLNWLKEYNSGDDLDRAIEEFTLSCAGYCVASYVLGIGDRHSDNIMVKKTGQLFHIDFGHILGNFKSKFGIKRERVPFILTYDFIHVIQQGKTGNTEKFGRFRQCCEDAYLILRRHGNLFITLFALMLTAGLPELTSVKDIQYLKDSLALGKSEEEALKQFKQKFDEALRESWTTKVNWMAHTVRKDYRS
T1 sequence (P27986 whole entry partner): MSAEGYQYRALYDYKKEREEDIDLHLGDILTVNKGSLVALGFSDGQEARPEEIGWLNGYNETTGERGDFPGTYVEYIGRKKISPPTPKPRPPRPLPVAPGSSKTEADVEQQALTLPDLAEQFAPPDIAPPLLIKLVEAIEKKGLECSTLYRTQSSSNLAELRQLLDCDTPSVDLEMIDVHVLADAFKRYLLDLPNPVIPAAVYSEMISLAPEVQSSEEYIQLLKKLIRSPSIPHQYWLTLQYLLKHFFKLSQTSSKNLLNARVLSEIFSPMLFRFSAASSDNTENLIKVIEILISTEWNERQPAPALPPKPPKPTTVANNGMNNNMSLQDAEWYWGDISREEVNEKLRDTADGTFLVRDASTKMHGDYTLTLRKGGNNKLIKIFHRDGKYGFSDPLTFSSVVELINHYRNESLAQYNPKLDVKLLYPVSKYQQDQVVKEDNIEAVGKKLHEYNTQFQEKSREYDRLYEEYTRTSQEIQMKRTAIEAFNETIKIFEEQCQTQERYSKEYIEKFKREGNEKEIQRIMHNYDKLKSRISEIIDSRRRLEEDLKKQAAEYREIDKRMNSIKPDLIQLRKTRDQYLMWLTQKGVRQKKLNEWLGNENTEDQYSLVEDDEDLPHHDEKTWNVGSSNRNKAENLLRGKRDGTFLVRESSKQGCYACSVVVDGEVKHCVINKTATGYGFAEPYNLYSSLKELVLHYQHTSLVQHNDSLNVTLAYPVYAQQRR

On to `Cc1nn2c(C#N)cc(N3CCOCC3)nc2c1Cc1cccc(C(F)(F)F)c1C` [Example 45, 2-methyl-3-(2-methyl-3-(trifluoromethyl)benzyl)-5-morpholinopyrazolo[1,5-a]pyrimidine-7-carbonitrile], for which the IC50 at PI3K-beta is 126 to 1260 nM; in assay [1], above 20000 nM.
Take `Oc1cc(N2CCOCC2)nc2c(Cc3cccc(Cl)c3Cl)c(C(F)(F)F)nn12` [Example 7, 3-(2,3-dichlorobenzyl)-5-morpholino-2-(trifluoromethyl)pyrazolo[1,5-a]pyrimidin-7-ol]: the values for the IC50 (on PI3K-beta; in assay [1]) were 0.126 to 1 nM and 1000 to 5000 nM, respectively.
Consider `Cc1nn2c(O)cc(N3CCOCC3)nc2c1Cc1cccc2ccccc12` [Example 22, 2-methyl-5-morpholino-3-(naphthalen-1-ylmethyl)pyrazolo[1,5-a]pyrimidin-7-ol], for which the results for the IC50 (at PI3K-beta; in assay [1]) were 0.126 to 1 nM and 1000 to 5000 nM, respectively.
The like results for `Cn1c(=O)c(Cc2cccc(Cl)c2Cl)c2nc(-c3ccncc3)cc(O)n21` [Example 50, 3-(2,3-dichlorobenzyl)-7-hydroxy-1-methyl-5-(pyridin-4-yl)pyrazolo[1,5-a]pyrimidin-2(1H)-one] were, in that order, 12.6 to 100 nM and 6000 to 10000 nM.
As for `Cc1c(Cc2cnn3c(O)cc(N4CCOCC4)nc23)cccc1C(F)(F)F` [Example 11, 3-(2-methyl-3-(trifluoromethyl)benzyl)-5-morpholinopyrazolo[1,5-a]pyrimidin-7-ol], the IC50 lay in the range of 1.26 to 10 nM at PI3K-beta and 1000 to 5000 nM in assay [1].
In the same order, the values of `Cc1nn2c(C(N)=O)cc(N3CCOCC3)nc2c1Cc1cccc(C(F)(F)F)c1C` [Example 39, 2-methyl-3-(2-methyl-3-(trifluoromethyl)benzyl)-5-morpholinopyrazolo[1,5-a]pyrimidine-7-carboxamide] are 12.6 to 100 nM and above 20000 nM.
In the same order, the values of `Cc1nn2c(C(=O)O)cc(N3CCOCC3)nc2c1Cc1cccc2ccccc12` [Example 37, 2-methyl-5-morpholino-3-(naphthalen-1-ylmethyl)pyrazolo[1,5-a]pyrimidine-7-carboxylic acid] are 12.6 to 100 nM and 1000 to 5000 nM.
`Cc1c(Cc2c(N)nn3c(O)cc(C4CCOCC4)nc23)cccc1C(F)(F)F` [Example 25, 2-amino-3-(2-methyl-3-(trifluoromethyl)benzyl)-5-(tetrahydro-2H-pyran-4-yl)pyrazolo[1,5-a]pyrimidin-7-ol]: the IC50 on PI3K-beta was 1.26 to 10 nM; in assay [1], below 1000 nM.
For `Cc1nn2c(C(=O)O)cc(N3CCOCC3)nc2c1Cc1cccc(C(F)(F)F)c1C` [Example 36, 2-methyl-3-(2-methyl-3-(trifluoromethyl)benzyl)-5-morpholinopyrazolo[1,5-a]pyrimidine-7-carboxylic acid], the values for the IC50 (on PI3K-beta; in assay [1]) were 1.26 to 10 nM and 1000 to 5000 nM, respectively.
For `Cc1ccccc1Cc1c(C)nn2c(O)cc(-c3ccncc3)nc12` [Example 29, 2-methyl-3-(2-methylbenzyl)-5-(pyridin-4-yl)pyrazolo[1,5-a]pyrimidin-7-ol], the IC50 on PI3K-beta is 1.26 to 10 nM; in assay [1], 1000 to 5000 nM.
Regarding `Cc1nn2c(C(N)=O)cc(N3CCOCC3)nc2c1Cc1cccc2ccccc12` [Example 38, 2-methyl-5-morpholino-3-(naphthalen-1-ylmethyl)pyrazolo[1,5-a]pyrimidine-7-carboxamide], the IC50 at PI3K-beta was 12.6 to 100 nM; in assay [1], below 1000 nM.
`Cc1c(Cc2c(O)nn3c(O)cc(C4CCOCC4)nc23)cccc1C(F)(F)F` [Example 19, 3-(2-methyl-3-(trifluoromethyl)benzyl)-5-(tetrahydro-2H-pyran-4-yl)pyrazolo[1,5-a]pyrimidine-2,7-diol]: the IC50 on PI3K-beta was 12.6 to 100 nM; in assay [1], above 20000 nM.
The like results for `Cc1nn2ccc(C3CCOCC3)nc2c1Cc1cccc(C(F)(F)F)c1C` [Example 5, 2-methyl-3-(2-methyl-3-(trifluoromethyl)benzyl)-5-(tetrahydro-2H-pyran-4-yl)pyrazolo[1,5-a]pyrimidine] were, in that order, 126 to 1260 nM and above 20000 nM.
